Reference: article PMC8197367, “Comparative Antimicrobial Activity of Hp404 Peptide and Its Analogs against Acinetobacter baumannii” (International Journal of Molecular Sciences, 2021)
Where no end group is shown, it is not given here.

Assays:
[1] = system: A. baumannii KCTC 2508; assay: MIC, broth microdilution; format: cell-based, Acinetobacter baumannii; details: two-fold broth microdilution, NB, 2 × 10^5 CFU/mL, 37 °C, 18 h, read at 600 nm, no added salt, three independent experiments
Protocol: (§1) The experiment was performed in triplicate.

[2] = calcein-loaded LUVs, Figure 4c
Protocol: Peptide-induced membrane permeability was monitored be measuring calcein dye emission in calcein-loaded LUVs. We prepared the lipid mixture, and PC:CH (2:1, w/w) and PC:CH:SM liposomes (1:1:1, w/w) were prepared with 70 mM calcein buffer. A Sephadex G-50 column was used to separate calcein-loaded liposomes from free calcein dye. The LUVs (10 μM) were mixed with various concentrations of the peptide on a 96-well black plate. The fluorescence intensity was measured at excitation and emission wavelengths of 480 and 520 nm, respectively.

[3] = system: mouse red blood cells; assay: Hemolytic assay; format: cell-based; details: 50 μM peptide (highest tested concentration); 8% mouse red blood cells in PBS, 1 h, 37 °C, absorbance 414 nm, vs 0.1% Triton X-100
Protocol: The hemolytic activity of the peptides against mouse erythrocytes was determined using red blood cells. Fresh mouse red blood cells were washed three times and resuspended in PBS to attain an 8% dilution. Peptides were serially diluted to a final concentration of 50 μM. Next, 100 µL peptide solution was added to 100 μL of mouse red blood cells, wrapped with aluminum foil and incubated for 1 h at 37 °C. The mixture was then centrifuged at 1500× g for 10 min. The supernatant was transferred into a new 96-well plate, and the absorbance of the supernatant was measured at 414 nm. As positive and negative controls, […] in mouse red blood cells were used. Hemolysis was evaluated according to the following equation:
Hemolysis (%) = [(Abs414 nm in the peptide solution − Abs414 nm in PBS)/(Abs414 nm in 0.1% Triton X-100 − Abs414 nm in PBS)] × 100.

[4] = system: E. coli ATCC 25922; assay: MIC, broth microdilution; format: cell-based, Escherichia coli; details: two-fold broth microdilution, LB, 2 × 10^5 CFU/mL, 37 °C, 18 h, read at 600 nm, three independent experiments
Protocol: as §1

[5] = Calcein leakage assay; details: PC:CH:SM (1:1:1, w/w) LUVs (10 μM) loaded with calcein; excitation 480 nm, emission 520 nm; various peptide concentrations
Protocol: (§4) Peptide-induced membrane permeability was monitored be measuring calcein dye emission in calcein-loaded LUVs [49]. We prepared the lipid mixture, and PC:CH (2:1, w/w) and PC:CH:SM liposomes (1:1:1, w/w) were prepared with 70 mM calcein buffer. A Sephadex G-50 column was used to separate calcein-loaded liposomes from free calcein dye. The LUVs (10 μM) were mixed with various concentrations of the peptide on a 96-well black plate. The fluorescence intensity was measured at excitation and emission wavelengths of 480 and 520 nm, respectively.

[6] = system: P. aeruginosa ATCC 27853; assay: MIC, broth microdilution; format: cell-based; details: two-fold broth microdilution, NB, 2 × 10^5 CFU/mL, 37 °C, 18 h, read at 600 nm, three independent experiments
Protocol: as §1

[7] = system: K. pneumoniae KCTC 2208; assay: MIC, broth microdilution; format: cell-based; details: two-fold broth microdilution, NB, 2 × 10^5 CFU/mL, 37 °C, 18 h, read at 600 nm, three independent experiments
Protocol: as §1

[8] = system: S. typhimurium ATCC 14028; assay: MIC, broth microdilution; format: cell-based, Salmonella typhimurium; details: two-fold broth microdilution, NB, 2 × 10^5 CFU/mL, 37 °C, 18 h, read at 600 nm, three independent experiments
Protocol: as §1

[9] = system: HaCaT cells; details: 50 μM peptide, 24 h, MTT assay
Protocol: The cytotoxicity of the peptides against mammalian cells was calculated using the MTT assay. Human keratinocyte HaCaT cells were incubated in Dulbecco’s modified Eagle’s medium (DMEM) supplemented with 10% fetal bovine serum and 1% penicillin at 37 °C with 5% CO2. HaCaT cells were added at 2 × 10^5 cells/mL to DMEM supplemented with 10% fetal bovine serum and placed in 96-well plates. The plates were incubated overnight at 37 °C in a CO2 incubator. Peptides were serially diluted two-fold in DMEM, added to the cell cultures and incubated for 24 h at 37 °C. MTT solution (5 mg/mL) was added to each well and incubated for 1 h at 37 °C. The media was discarded, and the formazan crystals were dissolved in 100 μL dimethyl sulfoxide. The absorbance was measured using a Versa-Max microplate ELISA reader (Molecular Devices, Sunnyvale, CA, USA) at 570 and 650 nm. As a […], 0.1% Triton X-100 was used.

[10] = system: S. aureus ATCC 29213; assay: MIC, broth microdilution; format: cell-based, Staphylococcus aureus; details: two-fold broth microdilution, TSB, 2 × 10^5 CFU/mL, 37 °C, 18 h, read at 600 nm, three independent experiments
Protocol: as §1

[11] = system: S. aureus ATCC 25923; assay: MIC, broth microdilution; format: cell-based, Staphylococcus aureus; details: two-fold broth microdilution, TSB, 2 × 10^5 CFU/mL, 37 °C, 18 h, read at 600 nm, three independent experiments
Protocol: as §1

[12] = system: B. cereus KCTC 1012; assay: MIC, broth microdilution; format: cell-based, Bacillus cereus; details: two-fold broth microdilution, TSB, 2 × 10^5 CFU/mL, 37 °C, 18 h, read at 600 nm, three independent experiments
Protocol: as §1

[13] = system: L. monocytogenes KCTC 3710; assay: MIC, broth microdilution; format: cell-based, Listeria monocytogenes; details: two-fold broth microdilution, BHI, 2 × 10^5 CFU/mL, 37 °C, 18 h, read at 600 nm, three independent experiments
Protocol: as §1

[14] = Calcein leakage assay; details: PC:CH LUVs (10 μM) loaded with calcein; excitation 480 nm, emission 520 nm; various peptide concentrations
Protocol: as §4

[15] = system: A. baumannii 907233; assay: microbe, parasite or virus in culture; details: A. baumannii 907233 isolated from patient; broth microdilution, 37 °C, 18 h; three independent experiments
From the text: (§2) Staphylococcus aureus ATCC 25923, S. aureus ATCC 29213, P. aeruginosa ATCC 27853, Escherichia coli ATCC 25922 and Salmonella typhimurium ATCC 14028 strains were obtained from the American Type Culture Collection (ATCC, Manassas, VA, USA). Listeria monocytogenes KCTC 3710, Bacillus cereus KCTC 1012, K. pneumoniae KCTC 2208 and A. baumannii KCTC 2508 were obtained from the Korean Collection for Type Cultures (KRIBB, Daejeon, South Korea). Clinical isolates of A. baumannii strains were collected from Eulji University Hospital (Seoul, South Korea).
(§3) Hp1404 and its analog peptides activity against both gram-positive and gram-negative bacterial strains were tested using the broth microdilution method. Briefly, S. aureus (ATCC 25923, ATCC 29213) and B. cereus KCTC 1012 were cultured overnight at 37 °C in tryptic soy broth (TSB). P. aeruginosa ATCC 27853, K. pneumoniae KCTC 2208, A. baumannii KCTC 2508 and S. typhimurium ATCC 14028 were cultured overnight at 37 °C in nutrient broth (NB). E. coli ATCC 25922 was cultured overnight at 37 °C in luria bertani (LB). L. monocytogenes KCTC 3710 was cultured overnight at 37 °C in brain heart infusion (BHI). The cultures were diluted with fresh medium at a density of 2 × 10^5 CFU/mL. Peptides were serially diluted in sodium phosphate buffer (pH 7.2) to a final concentration of 25 μM. In a 96-well plate, 50-μL bacterial aliquots were mixed with 50 μL peptide solution. After incubation at 37 °C for 18 h, the MIC was determined using a plate reader at 600 nm. The experiment was performed in triplicate.

[16] = system: A. baumannii #4; assay: microbe, parasite or virus in culture; details: A. baumannii #4 isolated from patient; broth microdilution, 37 °C, 18 h; three independent experiments
From the text: as §2, §3

[17] = system: A. baumannii 409081; assay: microbe, parasite or virus in culture; details: A. baumannii 409081 isolated from patient; broth microdilution, 37 °C, 18 h; three independent experiments
From the text: as §2, §3

[18] = system: A. baumannii 719705; assay: microbe, parasite or virus in culture; details: A. baumannii 719705 isolated from patient; broth microdilution, 37 °C, 18 h; three independent experiments
From the text: as §2, §3

[19] = system: A. baumannii #3; assay: microbe, parasite or virus in culture; details: A. baumannii #3 isolated from patient; broth microdilution, 37 °C, 18 h; three independent experiments
From the text: as §2, §3

[20] = system: A. baumannii #2; assay: microbe, parasite or virus in culture; details: A. baumannii #2 isolated from patient; broth microdilution, 37 °C, 18 h; three independent experiments
From the text: as §2, §3

[21] = system: A. baumannii KCTC 2508; details: NB supplemented with 150 mM NaCl, triplicate
Protocol: as §3
To determine whether antibacterial activity was affected by the presence of salts, experiments were conducted as previously reported. We determined the MICs of NB supplemented with 150 mM NaCl. MIC assays were performed as described above. The assay was performed in triplicate.

Substance	MIC [1] [µM]	hemolytic activity [3]	MIC [4] [µM]	MIC [6] [µM]	MIC [7] [µM]	MIC [8] [µM]	Cell viability [9] [%]	MIC [10] [µM]	MIC [11] [µM]	MIC [12] [µM]	MIC [13] [µM]	MIC [15] [µM]	MIC [16] [µM]	MIC [17] [µM]	MIC [18] [µM]	MIC [19] [µM]	MIC [20] [µM]	MIC in the presence of 150 mM NaCl [21] [µM]	further results
GILGKLWEGVKSIA-NH2 [Hp1404-A]	25	no hemolytic activity	>25	>25	>25	25	100	>25	12.5	>25	>25	–	–	–	–	–	–	–	calcein leakage fluorescence (bioimaging) [2]: no fluorescence was observed; calcein release (fluorescence intensity) [5]: did not release calcein; calcein release (fluorescence intensity) [14]: did not release calcein
GILGKLWEGVKSIF-NH2 [Hp1404, reference compound]	3.13	49.2%	12.5	12.5	12.5	3.13	72.3	6.25	3.13	12.5	3.13	3.13	3.13	3.13	3.13	3.13	3.13	6.25	–
GILGKLWEGVKSII-NH2 [Hp1404-I]	3.13	–	12.5	25	25	3.13	100	12.5	3.13	25	6.25	3.13	3.13	3.13	6.25	3.13	3.13	12.5	–
GILGKLWEGVKSIK-NH2 [Hp1404-K]	25	no hemolytic activity	>25	>25	>25	12.5	–	>25	25	>25	>25	–	–	–	–	–	–	–	calcein leakage fluorescence (bioimaging) [2]: no fluorescence was observed; calcein release (fluorescence intensity) [5]: did not release calcein; calcein release (fluorescence intensity) [14]: did not release calcein
GILGKLWEGVKSIL-NH2 [Hp1404-L]	3.13	45.8%	12.5	12.5	12.5	1.56	62.4	6.25	1.56	12.5	3.13	3.13	3.13	3.13	3.13	3.13	3.13	6.25	–
GILGKLWEGVKSIV-NH2 [Hp1404-V]	6.25	no hemolytic activity	25	>25	>25	6.25	100	25	6.25	25	25	6.25	6.25	6.25	12.5	6.25	6.25	25	–
GILGKLWEGVKSIW-NH2 [Hp1404-W]	3.13	15.9%	12.5	25	12.5	3.13	100	12.5	3.13	25	6.25	3.13	3.13	3.13	3.13	3.13	3.13	6.25	–
